Test results taken from ChEMBL document CHEMBL1201862, “PubChem BioAssay data set” (2004).
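Protocol summary: plate cells (96-well), add compound at 5 concentrations, incubate 48 h, interpolate endpoints linearly. GI50: concentration for 50% inhibition of growth.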 Calls of active or inactive are those of the source. Cut-off read from the data, not from the text of the source: active = GI50 up to about 1.1 µM and inactive = higher.

What was measured:
Assay in all cases: NCI-60 cell line screen, 48 h
[1] = tested on: MOLT-4
[2] = tested on: NCI-H226
[3] = tested on: DLD-1
[4] = tested on: SK-MEL-5
[5] = tested on: CAKI-1
[6] = tested on: OVCAR-3
[7] = tested on: OVCAR-4
[8] = tested on: HT-29
[9] = tested on: A498
[10] = tested on: SW-620
[11] = tested on: IGROV-1
[12] = tested on: ACHN
[13] = tested on: UACC-257
[14] = tested on: HOP-92
[15] = tested on: KM12
[16] = tested on: SF-268
[17] = tested on: A549
[18] = tested on: RXF 393

Measured: GI50

CC(C)NC(=O)CCN(C(=O)O)S(=O)(=O)c1ccc(NC(=O)c2ccccc2)cc1
inactive: [1] > 41.2 µM | [2] > 100 µM | [3] > 41.6 µM | [4] > 100 µM | [5] > 100 µM | [6] > 100 µM | [7] > 100 µM | [8] > 58.1 µM | [9] > 100 µM | [10] 27.7 µM | [11] > 100 µM | [12] > 81.3 µM | [13] > 51.9 µM | [14] > 100 µM | [15] > 65.6 µM | [16] > 54.5 µM | [17] > 50.1 µM | [18] > 100 µM

CC1=C(c2cc(C(=O)Nc3cccc(C(F)(F)F)c3)nc(NC#N)n2)Sc2ccccc2N1
inactive: [1] > 100 µM | [2] > 100 µM | [3] > 100 µM | [4] > 100 µM | [5] > 100 µM | [6] > 100 µM | [7] 31.7 µM | [8] > 100 µM | [9] > 100 µM | [10] > 100 µM | [11] > 100 µM | [12] > 100 µM | [13] > 100 µM | [14] > 100 µM | [15] > 100 µM | [16] > 100 µM | [17] > 100 µM | [18] > 100 µM

CN(C)CC1CCC(=C2CCCC2)C1=O (stereo not drawn)
inactive: [1] 2.76 µM | [2] 17.9 µM | [3] 2.82 µM | [4] 17.9 µM | [5] > 100 µM | [6] 13.5 µM | [7] 16.7 µM | [8] 12.5 µM | [9] 18.7 µM | [11] 17.6 µM | [12] 8.18 µM | [13] 17.4 µM | [14] 5 µM | [15] 10.9 µM | [16] 12.4 µM | [17] 20.5 µM | [18] 10.5 µM

CCOC(=O)c1c(-c2ccccc2)oc(-c2ccccc2)c1C(=O)OCC
inactive: [1] 48.1 µM | [2] > 100 µM | [3] > 100 µM | [4] 56.5 µM | [6] > 100 µM | [8] 22.6 µM | [9] 60.7 µM | [10] > 100 µM | [11] > 100 µM | [12] > 100 µM | [13] 77.6 µM | [14] > 100 µM | [15] > 100 µM | [16] > 100 µM | [17] > 100 µM | [18] > 100 µM

NC(=S)/N=C(/c1nc2ccc(Cl)cc2nc1O)C(O)c1ccccc1Cl (stereo not drawn)
inactive: [1] > 100 µM | [2] > 100 µM | [3] > 100 µM | [7] > 100 µM | [8] > 100 µM | [9] > 100 µM | [10] > 100 µM | [11] > 100 µM | [12] > 100 µM | [13] > 100 µM | [14] > 100 µM | [15] > 100 µM | [16] > 100 µM | [17] > 100 µM | [18] > 100 µM

Cc1cc(C)nc(NS(=O)(=O)c2ccc(NC(=O)c3cccc4c(Nc5ccc(S(N)(=O)=O)cc5)c5ccccc5nc34)cc2)n1
inactive: [1] 6.71 µM | [2] > 100 µM | [3] > 93.3 µM | [4] 19.1 µM | [5] > 100 µM | [6] 9.42 µM | [7] 35.1 µM | [8] 34.9 µM | [9] > 94.2 µM | [10] 20.6 µM | [11] 4.24 µM | [12] > 100 µM | [13] 28.1 µM | [14] 20.7 µM | [15] 15.4 µM | [16] 6.59 µM | [17] > 100 µM | [18] 11.2 µM

CCCCCCCC1(c2ccc(N)cc2)CCC(=O)NC1=O (stereo not drawn)
inactive: [1] 23.8 µM | [3] 33.7 µM | [4] 20.7 µM | [5] 27.4 µM | [6] 22.6 µM | [7] 28.1 µM | [10] 58.2 µM | [11] 32.3 µM | [12] 18.7 µM | [13] 32.9 µM | [14] 15.2 µM | [15] 48.4 µM | [16] 34.4 µM | [17] 31.6 µM | [18] 28 µM

CS(=O)(=O)NNS(=O)(=O)c1ccc(Cl)cc1
inactive: [1] 55.7 µM | [2] 11 µM | [3] > 100 µM | [4] > 100 µM | [5] 36.7 µM | [6] > 100 µM | [7] > 100 µM | [8] > 100 µM | [9] > 100 µM | [10] > 100 µM | [11] > 100 µM | [12] > 100 µM | [13] > 100 µM | [15] > 100 µM | [17] > 100 µM | [18] 26.1 µM

COC(=O)C1(F)C(=O)NC(=O)NC1OC (stereo not drawn)
inactive: [1] > 100 µM | [2] > 100 µM | [3] 5.92 µM | [4] 9.84 µM | [5] 83.9 µM | [6] 94.2 µM | [7] > 100 µM | [8] 22.2 µM | [9] > 100 µM | [10] > 100 µM | [11] > 100 µM | [12] 29 µM | [13] > 100 µM | [14] 45.7 µM | [15] 21.6 µM | [16] 45.4 µM | [17] 5.92 µM

COC(=O)CCC(NC(=S)N/N=C/c1ccco1)C(=O)OC (stereo not drawn)
inactive: [2] > 100 µM | [3] > 100 µM | [4] > 100 µM | [6] > 100 µM | [7] > 100 µM | [8] > 100 µM | [9] > 100 µM | [10] > 100 µM | [11] > 100 µM | [12] > 100 µM | [13] > 100 µM | [15] > 100 µM | [16] > 100 µM | [17] > 100 µM | [18] > 100 µM

Cc1ccc2c(c1)C(c1cccc3ccccc13)OC2=O (stereo not drawn)
inactive: [1] > 100 µM | [2] 42.9 µM | [3] 75 µM | [4] 31.4 µM | [5] > 100 µM | [6] > 100 µM | [7] 35 µM | [8] > 100 µM | [9] 26 µM | [10] > 100 µM | [11] > 100 µM | [12] 92.9 µM | [13] 53.8 µM | [15] 99.1 µM | [16] > 100 µM | [17] 89.3 µM | [18] 27.8 µM

COC1=CC2(C=CC1=O)c1cc(OC)c(OC)cc1CCN2C(=O)c1ccccc1 (stereo not drawn)
inactive: [1] > 100 µM | [2] > 100 µM | [3] > 100 µM | [4] > 100 µM | [5] > 100 µM | [6] > 100 µM | [8] > 100 µM | [9] > 100 µM | [10] > 100 µM | [11] > 100 µM | [12] > 100 µM | [13] > 100 µM | [14] > 100 µM | [15] > 100 µM | [17] > 100 µM | [18] > 100 µM
